Assay results taken from patent US12281122B1, “PI3K inhibitors” (Cogent Biosciences, Inc., priority 2023, dated 2025).

Key:
[1] = tested on: SKBR3 (PI3Kα-Wild Type) cell line; assay: HTRF phospho-AKT(S473) cell assay in SKBR3 cells; type: cell-based, human
Outline: (§1)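 T47D (PI3Kα-H1047R; RPMI, 10% FBS, insulin) and SKBR3 (wild-type PI3Kα; McCoy's 5A, 10% FBS) cells treated 2 h at 37 °C with 12-point 1:3 dilutions, top 5 μM and 10 μM respectively, ≤0.5% DMSO. SKBR3 stimulated with 70 ng/ml PDGF-BB for the last 15 min; lysate pAKT(S473) by HTRF, IC50 from curves.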

[2] = tested on: T47D (PI3Kα-H1047R) cell line; assay: HTRF phospho-AKT(S473) cell assay in T47D cells; type: cell-based, human
Outline: as §1

[3] = Homo sapiens, SK-BR-3; SKBR3 (PI3Kα-Wild Type) cells, HTRF phospho-AKT(S473), 2 hours compound incubation, PDGF-BB stimulated
[4] = Homo sapiens; T47D (PI3Kα-H1047R) cells, HTRF phospho-AKT(S473), 2 hours compound incubation
[5] = Homo sapiens, SK-BR-3; HTRF phospho-AKT(S473), SKBR3 (PI3Kα-Wild Type) cells, 2 hours compound incubation, PDGF-BB stimulated
[6] = Homo sapiens; HTRF phospho-AKT(S473), T47D (PI3Kα-H1047R) cells, 2 hours compound incubation

SMILES	IC50 [1, 3] [nM]	IC50 [2, 4] [nM]	IC50 [1, 5] [nM]	IC50 [2, 6] [nM]
CCn1c(N2CCC(n3cc(C)cn3)CC2)nc2c([C@@H](C)Nc3ccc(Cl)nc3C(=O)NS(C)(=O)=O)cc(C)cc2c1=O [Compound 526, (R)-6-chloro-3-((1-(3-ethyl-6-methyl-2-(4-(4-methyl-1H-pyrazol-1-yl)piperidin-1-yl)-4-oxo-3,4-dihydroquinazolin-8-yl)ethyl)amino)-N-(methylsulfonyl) picolinamide]			1000 to 5000	< 250
Cc1cc([C@@H](C)Nc2ccc(Cl)nc2C(=O)NS(C)(=O)=O)c2nc(-c3ccc4nn(C)cc4c3C)n(C)c(=O)c2c1 [Compound 798, (R)-6-chloro-3-((1-(2-(2,4-dimethyl-2H-indazol-5-yl)-3,6-dimethyl-4-oxo-3,4-dihydroquinazolin-8-yl)ethyl)amino)-N-(methylsulfonyl) picolinamide]			1000 to 5000	< 250
Cc1cc([C@@H](C)Nc2ccc(Cl)nc2C(=O)NS(C)(=O)=O)c2nc(N3C4CCC3CN(c3cnn(C)c3)C4)n(C)c(=O)c2c1 [Compound 269, 6-chloro-3-(((1R)-1-(3,6-dimethyl-2-(3-(1-methyl-1H-pyrazol-4-yl)-3,8-diazabicyclo[3.2.1]octan-8-yl)-4-oxo-3,4-dihydroquinazolin-8-yl)ethyl)amino)-N-(methylsulfonyl) picolinamide]	1000 to 5000	< 250		
Cc1cc([C@@H](C)Nc2ccc(Cl)nc2C(=O)NS(C)(=O)=O)c2nc(N3Cc4cnn([C@@H](C)C(F)(F)F)c4C3)n(C)c(=O)c2c1 (relative stereo) [Compound 284, 6-chloro-3-(((R)-1-(3,6-dimethyl-4-oxo-2-(1-((R*)-1,1,1-trifluoropropan-2-yl)-4,6-dihydropyrrolo[3,4-c]pyrazol-5(1H)-yl)-3,4-dihydroquinazolin-8-yl)ethyl)amino)-N-(methylsulfonyl) picolinamide]	1000 to 5000	< 250		
Cc1cc([C@@H](C)Nc2ccc(Cl)nc2C(=O)NS(C)(=O)=O)c2nc(N3CCC(c4nnc(C)s4)CC3)n(C)c(=O)c2c1 [Compound 558, (R)-6-chloro-3-((1-(3,6-dimethyl-2-(4-(5-methyl-1,3,4-thiadiazol-2-yl)piperidin-1-yl)-4-oxo-3,4-dihydroquinazolin-8-yl)ethyl)amino)-N-(methylsulfonyl) picolinamide]			1000 to 5000	< 250
Cc1cc([C@@H](C)Nc2ccc(Cl)nc2C(=O)NS(C)(=O)=O)c2nc(N3CCC(c4nn(C)cc4N(C)C)CC3)n(C)c(=O)c2c1 [Compound 308, (R)-6-chloro-3-((1-(2-(4-(4-(dimethylamino)-1-methyl-1H-pyrazol-3-yl)piperidin-1-yl)-3,6-dimethyl-4-oxo-3,4-dihydroquinazolin-8-yl)ethyl)amino)-N-(methylsulfonyl) picolinamide]	≥ 5000	< 250		

The remaining lines, values ahead:

IC50 [1, 3] [nM]	IC50 [2, 4] [nM]	IC50 [1, 5] [nM]	IC50 [2, 6] [nM]	SMILES
1000 to 5000	< 250			Cc1cc([C@@H](C)Nc2ccc(Cl)nc2C(=O)NS(C)(=O)=O)c2nc(N3CCC(Nc4cnn(C)c4)CC3)n(C)c(=O)c2c1 [Compound 291, (R)-6-chloro-3-((1-(3,6-dimethyl-2-(4-((1-methyl-1H-pyrazol-4-yl)amino)piperidin-1-yl)-4-oxo-3,4-dihydroquinazolin-8-yl)ethyl)amino)-N-(methylsulfonyl) picolinamide]
		≥ 5000	250 to 500	Cc1cc([C@@H](C)Nc2ccc(Cl)nc2C(=O)NS(C)(=O)=O)c2nc(N3C[C@@H]4C[C@H]3CN4c3ccc(C#N)cn3)n(C)c(=O)c2c1 [Compound 580, 6-chloro-3-(((R)-1-(2-((1S,4S)-5-(5-cyanopyridin-2-yl)-2,5diazabicyclo [2.2.1]heptan-2-yl)-3,6-dimethyl-4-oxo-3,4-dihydroquinazolin-8-yl)ethyl)amino)-N-(methylsulfonyl) picolinamide]
		1000 to 5000	< 250	Cc1cc([C@@H](C)Nc2ccc(Cl)nc2C(=O)NS(C)(=O)=O)c2nc(N3CCC(c4ncc(F)cn4)CC3)n(C)c(=O)c2c1 [Compound 486, (R)-6-chloro-3-((1-(2-(4-(5-fluoropyrimidin-2-yl)piperidin-1-yl)-3,6-dimethyl-4-oxo-3,4-dihydroquinazolin-8-yl)ethyl)amino)-N-(methylsulfonyl) picolinamide]
		≥ 5000	250 to 500	Cc1cnc(N2C[C@H]3C[C@@H]2CN3c2nc3c([C@@H](C)Nc4ccc(Cl)nc4C(=O)NS(C)(=O)=O)cc(C)cc3c(=O)n2C)nc1 [Compound 565, 6-chloro-3-(((R)-1-(3,6-dimethyl-2-((1R,4R)-5-(5-methylpyrimidin-2-yl)-2,5-diazabicyclo[2.2.1]heptan-2-yl)-4-oxo-3,4-dihydroquinazolin-8-yl)ethyl)amino)-N-(methylsulfonyl) picolinamide]
		≥ 5000	1000 to 5000	Cc1cc([C@@H](C)Nc2ccc(Cl)nc2C(=O)NS(C)(=O)=O)c2nc(N3C[C@H]4C[C@@H]3CN4c3ccc(N)cn3)n(C)c(=O)c2c1 [Compound 597, 3-(((R)-1-(2-((1R,4R)-5-(5-aminopyridin-2-yl)-2,5-diazabicyclo [2.2.1]heptan-2-yl)-3,6-dimethyl-4-oxo-3,4-dihydroquinazolin-8-yl)ethyl)amino)-6-chloro-N-(methylsulfonyl) picolinamide]
		≥ 5000	500 to 1000	Cc1cc([C@@H](C)Nc2ccc(Cl)nc2C(=O)NS(C)(=O)=O)c2nc(N3C[C@H]4C[C@@H]3CN4c3cnc(C)nc3)n(C)c(=O)c2c1 [Compound 592, 6-chloro-3-(((R)-1-(3,6-dimethyl-2-((1R,4R)-5-(2-methylpyrimidin-5-yl)-2,5-diazabicyclo [2.2.1]heptan-2-yl)-4-oxo-3,4-dihydroquinazolin-8-yl)ethyl)amino)-N-(methylsulfonyl) picolinamide]
		≥ 5000	500 to 1000	COc1cc(N2C[C@H]3C[C@@H]2CN3c2nc3c([C@@H](C)Nc4ccc(Cl)nc4C(=O)NS(C)(=O)=O)cc(C)cc3c(=O)n2C)ccn1 [Compound 639, 6-chloro-3-(((R)-1-(2-((1R,4R)-5-(2-methoxypyridin-4-yl)-2,5-diazabicyclo [2.2.1]heptan-2-yl)-3,6-dimethyl-4-oxo-3,4-dihydroquinazolin-8-yl)ethyl)amino)-N-(methylsulfonyl) picolinamide]
1000 to 5000	< 250			Cc1cc([C@@H](C)Nc2ccc(Cl)nc2C(=O)NS(C)(=O)=O)c2nc(N3CC[C@H](Oc4cnn(C)c4)C3)n(C)c(=O)c2c1 [Compound 331, 6-chloro-3-(((R)-1-(3,6-dimethyl-2-((S)-3-((1-methyl-1H-pyrazol-4-yl)oxy)pyrrolidin-1-yl)-4-oxo-3,4-dihydroquinazolin-8-yl)ethyl)amino)-N-(methylsulfonyl) picolinamide]
		1000 to 5000	250 to 500	Cc1cc([C@@H](C)Nc2ccc(Cl)nc2C(=O)NS(C)(=O)=O)c2nc(N3C[C@@H]4[C@H](C3)[C@H]4c3nc(C)no3)n(C)c(=O)c2c1 [Compound 742, 6-chloro-3-(((R)-1-(3,6-dimethyl-2-((1R,5S,6R)-6-(3-methyl-1,2,4-oxadiazol-5-yl)-3-azabicyclo[3.1.0]hexan-3-yl)-4-oxo-3,4-dihydroquinazolin-8-yl)ethyl)amino)-N-(methylsulfonyl) picolinamide]
